Legend:
DSS-induced colitis = assay: DSS-induced colitis, bioactivation of salicin by Bacteroides uniformis; format: in vivo; conditions: salicin bioactivated to saligenin by Bacteroides uniformis; FIGS. 7A-7B
Description: (§1) The present disclosure identifies and characterizes a novel mechanism by which the gut microbiome transforms abundant and chemically diverse small molecule components of human diet to drive pro-homeostatic programs in the intestine.

[1] = tested on: DSS-induced intestinal inflammation; assay: DSS-induced colitis, pure compound delivered orally; format: in vivo, mice
Description: as §1

AhR [2] = molecular target: T1, AhR (Homo sapiens, UniProt P35869); assay: Activation of xenobiotic sensor AhR; format: cell-based; conditions: FIG. 4
T1 sequence (P35869 11-848): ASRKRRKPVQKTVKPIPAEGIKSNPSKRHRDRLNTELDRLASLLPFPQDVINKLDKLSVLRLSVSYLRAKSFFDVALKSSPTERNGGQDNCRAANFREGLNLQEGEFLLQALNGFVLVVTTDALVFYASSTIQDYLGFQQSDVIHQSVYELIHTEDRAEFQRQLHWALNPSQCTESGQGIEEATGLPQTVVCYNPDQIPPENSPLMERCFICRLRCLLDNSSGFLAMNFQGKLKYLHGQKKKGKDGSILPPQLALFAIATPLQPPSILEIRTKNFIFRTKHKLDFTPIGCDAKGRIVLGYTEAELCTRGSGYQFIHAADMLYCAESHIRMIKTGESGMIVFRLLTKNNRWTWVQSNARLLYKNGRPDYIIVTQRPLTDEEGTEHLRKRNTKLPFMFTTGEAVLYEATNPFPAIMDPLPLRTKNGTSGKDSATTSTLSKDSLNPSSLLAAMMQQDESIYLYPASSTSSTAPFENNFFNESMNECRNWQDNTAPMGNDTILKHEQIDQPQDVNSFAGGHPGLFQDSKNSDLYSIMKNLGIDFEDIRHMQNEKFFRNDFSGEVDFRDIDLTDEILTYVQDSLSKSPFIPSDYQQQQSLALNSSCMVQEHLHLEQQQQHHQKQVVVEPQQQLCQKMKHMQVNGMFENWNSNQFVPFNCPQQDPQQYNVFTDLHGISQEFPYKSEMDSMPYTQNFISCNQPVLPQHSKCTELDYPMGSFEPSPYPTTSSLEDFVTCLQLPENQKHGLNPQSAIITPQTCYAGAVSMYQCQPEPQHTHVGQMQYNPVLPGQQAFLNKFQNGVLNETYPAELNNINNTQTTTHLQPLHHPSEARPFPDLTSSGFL
Description: Saligenin […] AhR, a xenobiotic immune sensor that drives pro-homeostatic processes in gut epithelia and immune cells.

AhR [3] = molecular target: T2, AhR (Mus musculus, UniProt P30561); assay: In vivo AhR activation in colitis, reversal with competitive AhR antagonist; conditions: FIG. 9
T2 construct: endogenous in cells
T2 sequence (P30561 10-848): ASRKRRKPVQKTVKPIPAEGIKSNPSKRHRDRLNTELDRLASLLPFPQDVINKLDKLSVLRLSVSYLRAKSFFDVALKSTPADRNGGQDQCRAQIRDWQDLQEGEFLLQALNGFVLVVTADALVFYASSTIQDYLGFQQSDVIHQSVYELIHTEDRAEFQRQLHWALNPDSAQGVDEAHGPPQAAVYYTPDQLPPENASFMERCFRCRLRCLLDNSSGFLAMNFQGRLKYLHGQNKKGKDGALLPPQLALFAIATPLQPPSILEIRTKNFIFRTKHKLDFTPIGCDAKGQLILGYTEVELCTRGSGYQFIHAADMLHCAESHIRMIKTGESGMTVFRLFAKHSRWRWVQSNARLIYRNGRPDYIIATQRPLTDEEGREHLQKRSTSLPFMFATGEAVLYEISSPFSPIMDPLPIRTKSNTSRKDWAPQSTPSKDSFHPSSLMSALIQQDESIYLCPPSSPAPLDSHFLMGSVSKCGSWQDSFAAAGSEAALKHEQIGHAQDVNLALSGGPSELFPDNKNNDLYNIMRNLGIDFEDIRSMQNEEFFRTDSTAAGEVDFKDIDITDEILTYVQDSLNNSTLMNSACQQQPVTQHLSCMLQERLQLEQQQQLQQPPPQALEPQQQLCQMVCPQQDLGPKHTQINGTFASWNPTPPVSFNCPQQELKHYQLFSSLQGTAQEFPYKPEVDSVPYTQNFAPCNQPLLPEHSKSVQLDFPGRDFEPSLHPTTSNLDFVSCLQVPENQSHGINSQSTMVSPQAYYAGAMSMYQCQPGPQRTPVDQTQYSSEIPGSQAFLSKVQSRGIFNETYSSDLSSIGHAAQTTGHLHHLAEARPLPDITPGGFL
Description: as §1

[4] = tested on: macrophages stimulated with pro-inflammatory LP5; assay: Inflammatory cytokine production by stimulated macrophages after saligenin pre-treatment; format: cell-based; conditions: in vitro, FIGS. 1A-1B

Structure (SMILES) | protection against DSS-induced colitis (DSS-induced colitis) | Th1-effector cells ([1]; DSS exposure, FIGS. 6A-6B) | colonic IFN-gamma ([1]; DSS exposure, FIGS. 11A-11B) | protection against DSS-induced intestinal inflammation ([1]; pure compound delivered orally daily for 7 days, mice, FIGS. 8A-8B) | AhR activation (AhR [2]) | AhR activation in vivo, reversibility by antagonist (AhR [3]) | inflammatory cytokine production [4]
OCc1ccccc1O[C@@H]1O[C@H](CO)[C@@H](O)[C@H](O)[C@H]1O [salicin] | protected against DSS-induced colitis | – | – | – | – | – | –
OCc1ccccc1O [saligenin] | – | decrease in Th1-effector cells | decrease in colonic IFN-gamma | protected against DSS-induced intestinal inflammation | activated | can be reversed with a competitive AhR antagonist | attenuated inflammatory cytokine production

From patent publication US20260027163A1, “GUT MICROBIOME BACTERIA AND ENZYMES THAT METABOLIZE DIETARY AND MEDICINAL PLANT SMALL MOLECULES TO AFFECT GUT MICROBIOME” (The Children's Medical Center Corporation, priority 2022, published 2026)
